According to ChEMBL document CHEMBL6103570, “An endoplasmic reticulum and lipid droplets dual-localized strategy to develop small molecular photosensitizers that induce ferroptosis during photodynamic therapy” (Eur J Med Chem, 2025):
Active and inactive are the calls of the source. The rule behind the calls is not given here.

How the values were obtained:
[1] = (§1) Photo selectivity index, ratio of CC50 for darktoxicity in human MDA-MB-231 cells assessed as cell viability preincubated for 24 hrs followed by incubation under dark condition for 24 hrs by MTT assay to IC50 for phototoxicity in human MDA-MB-231 cells assessed as cell viability preincubated for 24 hrs followed by white light irradiation at 20 mW/cm2 for 10 mins and measured after 24 hrs by MTT assay; assay type: toxicity, cell-based; details: read-out: Ratio CC50/IC50
[2] = tested on: 4T1; assay: Induction of ferroptosis in mouse 4T1 cells assessed as increase in intracellular lipid peroxidation accumulation by measuring increase in green fluorescence at 30 nM incubated under dark condition for 24 hrs by C11 BODIPY 581/591 staining based analysis; assay type: functional, cell-based
[3] = Drug localization in endoplasmic reticulum of mouse 4T1 cells assessed as increase in green fluorescence at 2 uM incubated for 12 hrs by confocal scanning microscopy analysis; assay type: ADME, subcellular; details: 4t1, 12 h
[4] = tested on: 4T1; assay: (§2) Induction of intracellular ROS generation in mouse 4T1 cells assessed as increase in green fluorescence intensity at 5 to 60 nM incubated in dark for 24 hrs followed by compound removal and measured after 5 mins under 20 mW/cm2H2 white light irradiation by H2-DCFDA staining based fluorescence assay; assay type: functional, cell-based; details: dose 5-60 nM
[5] = Phototoxicity in mouse 4T1 cells assessed as cell viability preincubated for 24 hrs followed by white light irradiation at 20 mW/cm2 for 10 mins and measured after 24 hrs by MTT assay; assay type: functional, cell-based; details: 4T1, light or radiation study
[6] = tested on: 4T1; assay: Induction of ferroptosis in mouse 4T1 cells assessed as cell viability at 30 nM preincubated for 24 hrs followed by white light irradiation at 20 mW/cm2 and measured after 24 hrs in presence of Fer-1 by MTT assay; assay type: functional, cell-based; details: time 48.0 hrs
[7] = Darktoxicity in human MDA-MB-231 cells assessed as cell viability preincubated for 24 hrs followed by incubation under dark condition for 24 hrs by MTT assay; assay type: toxicity, cell-based; details: time 48 hrs
[8] = tested on: 4T1; assay: Induction of ferroptosis in mouse 4T1 cells assessed as decrease in intracellular GSH level at 15 nM preincubated in dark condition for 24 hrs followed by 20mW/cm2 white light irradiation for 10 mins and measured after 12 hrs by colorimetric assay; assay type: functional, cell-based; details: time 2170.0 min
[9] = tested on: 4T1; assay: Induction of ferroptosis in mouse 4T1 cells assessed as cell viability at 30 nM preincubated for 24 hrs followed by white light irradiation at 20 mW/cm2 and measured after 24 hrs in presence of 3-MA by MTT assay; assay type: functional, cell-based; details: time 48.0 hrs
[10] = tested on: MDA-MB-231; assay: Upregulation of Hmox1 mRNA expression in human MDA-MB-231 cells at 10 nM preincubated for 24 hrs followed by […] white light irradiation for 10 mins and measured after 12 hrs by qRT-PCR analysis; assay type: functional, cell-based; details: time 2170.0 min
[11] = Phototoxicity in human Bcap37 cells assessed as cell viability preincubated for 24 hrs followed by white light irradiation at 20 mW/cm2 for 10 mins and measured after 24 hrs by MTT assay; assay type: functional, cell-based; details: Bcap37, light or radiation study
[12] = Photosensitizing ability of the compound in NaOH assessed as fluorescence quantum yield; assay type: functional
[13] = tested on: 4T1; assay: Induction of ferroptosis in mouse 4T1 cells assessed as increase in MDA level at 15 nM preincubated in dark condition for 24 hrs followed by 20mW/cm2 white light irradiation for 10 mins and measured after 6 hrs by colorimetric assay; assay type: functional, cell-based; details: time 1810.0 min
[14] = tested on: 4T1; assay: Upregulation of Chac1 mRNA expression in mouse 4T1 cells at 10 nM under light irradiation by KEGG analysis; assay type: functional, cell-based
[15] = as §1, with “MCF7” for “MDA-MB-231”; assay type: toxicity, cell-based; details: read-out: Ratio CC50/IC50
[16] = tested on: 4T1; assay: as §2, with “irradiation in presence of NaN3” for “irradiation”; assay type: functional, cell-based; details: dose 5-60 nM
[17] = tested on: 4T1; assay: Upregulation of Hmox1 mRNA expression in mouse 4T1 cells at 10 nM preincubated for 24 hrs followed by […] white light irradiation for 10 mins and measured after 12 hrs by qRT-PCR analysis; assay type: functional, cell-based; details: time 2170.0 min
[18] = tested on: 4T1; assay: Upregulation of Hmox1 mRNA expression in mouse 4T1 cells at 10 nM under light irradiation by KEGG analysis; assay type: functional, cell-based
[19] = Phototoxicity in human MCF7 cells assessed as cell viability preincubated for 24 hrs followed by white light irradiation at 20 mW/cm2 for 10 mins and measured after 24 hrs by MTT assay; assay type: functional, cell-based; details: MCF7, light or radiation study
[20] = tested on: 4T1; assay: Upregulation of Acsl4 mRNA expression in mouse 4T1 cells at 10 nM under light irradiation by KEGG analysis; assay type: functional, cell-based
[21] = tested on: 4T1; assay: Upregulation of […] mRNA expression in mouse 4T1 cells at 10 nM preincubated for 24 hrs followed by […] white light irradiation for 10 mins and measured after 12 hrs by qRT-PCR analysis; assay type: functional, cell-based; details: time 2170.0 min
[22] = Darktoxicity in human MCF7 cells assessed as cell viability preincubated for 24 hrs followed by incubation under dark condition for 24 hrs by MTT assay; assay type: toxicity, cell-based; details: time 48 hrs
[23] = tested on: MDA-MB-231; assay: Upregulation of Acsl4 mRNA expression in human MDA-MB-231 cells at 10 nM preincubated for 24 hrs followed by […] white light irradiation for 10 mins and measured after 12 hrs by qRT-PCR analysis; assay type: functional, cell-based; details: time 2170.0 min
[24] = Phototoxicity in human MDA-MB-231 cells assessed as cell viability preincubated for 24 hrs followed by white light irradiation at 20 mW/cm2 for 10 mins and measured after 24 hrs by MTT assay; assay type: functional, cell-based; details: MDA-MB-231, light or radiation study
[25] = tested on: 4T1; assay: Induction of ferroptosis in mouse 4T1 cells assessed as cell viability at 30 nM preincubated for 24 hrs followed by white light irradiation at 20 mW/cm2 and measured after 24 hrs in presence of Z-VAD-FMK by MTT assay; assay type: functional, cell-based; details: time 48.0 hrs
[26] = tested on: 4T1; assay: Induction of ferroptosis in mouse 4T1 cells assessed as cell viability at 30 nM preincubated for 24 hrs followed by white light irradiation at 20 mW/cm2 and measured after 24 hrs in presence of Nec-1 by MTT assay; assay type: functional, cell-based; details: time 48.0 hrs
[27] = Drug localization in Lipid droplet of mouse 4T1 cells assessed as increase in green fluorescence at 2 uM incubated for 12 hrs by confocal scanning microscopy analysis; assay type: ADME, subcellular; details: 4t1, 12 h
[28] = tested on: 4T1; assay: Induction of ferroptosis in mouse 4T1 cells assessed as increase in intracellular lipid peroxidation accumulation by measuring increase in green fluorescence at 30 nM preincubated for 24 hrs followed by 30 mW/cm2 green light irradiation for 4 mins by C11 BODIPY 581/591 staining based analysis; assay type: functional, cell-based; details: time 1444.0 min
[29] = as §1, with “Bcap37” for “MDA-MB-231”; assay type: toxicity, cell-based; details: read-out: Ratio CC50/IC50
[30] = as §1, with “mouse 4T1” for “human MDA-MB-231”; assay type: toxicity, cell-based; details: read-out: Ratio CC50/IC50
[31] = Potency index, ratio of IC50 for Chlorin e6 to IC50 for test compound for phototoxicity in human MDA-MB-231 cells assessed as cell viability preincubated for 24 hrs followed by white light irradiation at 20 mW/cm2 for 10 mins and measured after 24 hrs by MTT assay; assay type: functional; details: time 48 hrs
[32] = Photosensitizing ability of the compound in EtOH assessed as singlet oxygen quantum yield at 100 nM under 520nm 30 mW/cm2 light irradiation by DPBF reagent based analysis; assay type: functional
[33] = tested on: 4T1; assay: Upregulation of Chac1 mRNA expression in mouse 4T1 cells at 10 nM preincubated for 24 hrs followed by […] white light irradiation for 10 mins and measured after 12 hrs by qRT-PCR analysis; assay type: functional, cell-based; details: time 2170.0 min
[34] = Darktoxicity in human Bcap37 cells assessed as cell viability preincubated for 24 hrs followed by incubation under dark condition for 24 hrs by MTT assay; assay type: toxicity, cell-based; details: time 48 hrs
[35] = Drug localization in Lipid droplet of mouse 4T1 cells assessed as increase in green fluorescence by measuring pearson correlation coefficient at 2 uM incubated for 12 hrs by confocal scanning microscopy analysis; assay type: ADME, subcellular; details: 4t1, 12 h
[36] = tested on: MDA-MB-231; assay: Upregulation of Chac1 mRNA expression in human MDA-MB-231 cells at 10 nM preincubated for 24 hrs followed by […] white light irradiation for 10 mins and measured after 12 hrs by qRT-PCR analysis; assay type: functional, cell-based; details: time 2170.0 min

SMILES: CC1=C(I)C(C)=[N+]2C1=C(c1nccc3c1[nH]c1ccccc13)c1c(C)c(I)c(C)n1[B-]2(F)F
- selectivity ratio [1]: 835
- Activity [2]: inactive
- Drug uptake [3]: Active
- Activity [4]: Active
- IC50 [5]: 23 nM
- Activity [6]: Active
- CC50 at 24 h [7]: 27600 nM
- Activity [8]: Active
- Activity [9]: inactive
- Activity [10]: Active
- IC50 [11]: 26 nM
- Activity [12]: 0.19
- Activity [13]: Active
- Activity [14]: Active
- selectivity ratio [15]: > 2430
- Activity [16]: inactive
- Activity [17]: Active
- Activity [18]: Active
- IC50 [19]: 41 nM
- Activity [20]: Active
- Activity [21]: Active
- CC50 at 24 h [22]: > 100000 nM
- Activity [23]: Active
- IC50 [24]: 33 nM
- Activity [25]: inactive
- Activity [26]: inactive
- Drug uptake [27]: Active
- Activity [28]: Active
- selectivity ratio [29]: > 3880
- selectivity ratio [30]: 18
- Ratio IC50 [31]: 38
- Activity [32]: 0.73
- Activity [33]: Active
- CC50 at 24 h [34]: > 100000 nM
- Activity [35]: 0.84
- Activity [36]: Active
